Reference: article PMC12636026 (Journal of the American Chemical Society, 2025)
“Also recorded” adds a separate entry of the source. Bridges are numbered along the chain shown (N, C = ends). Roman numbers before positions name the chains, in order.

Tests used:
[1] = Zn(II)/phosphate challenge, relaxivity, 2.5 mM complex and 2.5 mM Zn(II); ref Laurent et al.; cited from earlier work
From the text: The stability of MRI contrast agents is often benchmarked by the “ratio index”, defined as the time for the relaxation value to drop to 80% of its initial value under Zn(II)/phosphate challenge. […] Laurent et al. monitored complex integrity using relaxivity under equimolar condi ...

[2] = clinical agent; ref citation number not given; cited from earlier work
From the text: These findings advance our understanding of ligand suitability in MRI contrast agent design and illustrate the potential of metallo-coiled coils to surpass the performance limits of traditional inorganic complexes. By exploiting the modular natur ...

trypsin = assay: 12 µM trypsin (bovine pancreas) in 100 mM HEPES buffer pH 7.5; settings: 37°C, up to 48 h
[3] = Circular dichroism folding (% folded from ellipticity at 222 nm); format: physicochemical; settings: CD 222 nm, no metal, 10 mM HEPES pH 7.0, 293 K, triplicate
CD thermal unfolding = format: physicochemical; settings: apo, 10 μM, 10 mM HEPES pH 7.0, CD 222 nm
Experimental: 2 (A) CD spectra of 0.1 μM and (B) 10 μM KH2-20X and MB1-2 trimers in the absence (apo; KH2-20X, orange; MB1-2, blue) and presence (holo; KH2-20X + TbCl3, red; MB1-2 + TbCl3, turquoise) of 1.0 equiv of TbCl3, recorded at 293 K. (C) CD thermal unfolding profiles of 10 μM trimers monitoring the molar ellipticity at 222 nm: apo MB1-2 (blue), Tb(MB1-2)3 (turquoise), apo KH2-20X (orange), and Tb(KH2-20X) (red). Solid lines indicate forward heating, and dotted lines indicate reverse cooling. All experiments were conducted in HEPES buffer at pH 7.0, with buffer concentrations adjusted to match peptide concentration (0.1 and 10.0 mM for 0.1 and 10.0 μM peptide, respectively). […]
10 µM peptide in 10 mM HEPES, 0.1 mM TbCl₃ into 1 µM peptide in 1 mM HEPES, and 0.01 mM TbCl₃ into 0.1 µM peptide in 0.1 mM HEPES (all at pH 7.0). […] The observed ellipticity was then converted into molar ellipticity, where the helical content was calculated as the percentage folded, based on the theoretical maximum ellipticity at 222 nm as reported by Scholtz et al.9 Thermal unfolding data was recorded by monitoring the ellipticity at 222 nm of a 10 μM trimer concentration of MB1-2 and KH2-20X solution in 10 mM HEPES buffer (pH 7.0) in the absence and presence of 10 μM TbCl3, using a Jasco Peltier Type MPTC-513 temperature controller ramping from 20 °C to 85 °C in 0.1°C increments, heating at 1 °C/min. […]

[4] = Kinetics of Tb(III) binding and coiled coil folding (CD 222 nm / Tb emission 545 nm); format: physicochemical; settings: 0.1, 1.0 and 10 μM, 10 mM HEPES pH 7.0, 1.0 equiv TbCl3
[5] = Native mass spectrometry metalation; format: binding; settings: 10 μM trimer : 10 μM metal, 50 mM ammonium acetate pH 6.8, room temperature, 60 min
From the text: This preserves noncovalent interactions enabling coiled coil complexes to be detected. […] (C) Representative full Tb(III) emission spectra for each titration point. λex = 280 nm. […] Error bars determined from standard deviation error of three independent repeat experiments. […] page 4: […] Upon successful purification, removal of Tb(III) was confirmed on a small aliquot of cross-linked peptide by fluorescence spectroscopy. Here the absence of enhanced/sensitized Tb(III) emission, at 545 nm, is consistent with complete […] Stock solutions preparation: In all experiments, the concentration of peptide stock […] Once samples were prepared, the concentration of the solutions were checked by UV vis and adjust if necessary. All GdCl3 and TbCl3 stock solutions were freshly […] solutions were also freshly prepared and determined in a similar fashion using EDTA and xylenol orange indicator solution.6 The equivalence of metal added was then adjust to the exact concentration of peptide in the sample. […] in volumetric glassware using MilliQ water. Native mass spectrometry (MS): […] ammonium acetate pH 6.8. The concentrations of the peptides were measured using the […] Metal stock solutions were initially prepared by […] These stock solutions were then […] […] The observed molecular weights were calculated from an average of 3 charge states. […]

[6] = molecular target: T1, trypsin (bovine pancreas) (Bos taurus, UniProt P00760); assay: in vitro; format: in vitro ADME; settings: 100 µM, 12 μM trypsin, 100 mM HEPES pH 7.5, 37 °C, HPLC
T1 construct: from tissue; host or cells: bovine pancreas
T1 sequence (P00760 24-246): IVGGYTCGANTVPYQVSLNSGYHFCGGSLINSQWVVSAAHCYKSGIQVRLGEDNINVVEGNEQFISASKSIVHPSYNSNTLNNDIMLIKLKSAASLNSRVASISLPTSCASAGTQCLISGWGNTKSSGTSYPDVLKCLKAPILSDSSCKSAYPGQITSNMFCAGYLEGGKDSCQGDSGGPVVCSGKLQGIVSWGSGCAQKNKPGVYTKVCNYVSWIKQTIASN
Experimental: (§1) page 8: determined as reported periously10 at the data was fitted to the Hills equation using MatLab.11 Stability Studies: Zinc transmetallation experiments: Emission spectra of Tb(III) were recorded for 1.0 µM […] Zinc chloride (ZnCl₂) was then added to each cuvette to give a final concentration of 125 µM Zn(II), and the fluorescence emission spectra were subsequently collected over time. The Tb(III) emission for each sample was normalized to the integrated intensity of the 545 nm emission peak from the initial spectrum. Phosphate and HEPES: Emission spectra of Tb(III) were recorded for 1.0 µM solutions of […] Phosphate buffer prepared from a mixture of sodium monobasic and tribasic phosphate salts (to give a stock concentration of 100 mM at pH 7.0) […] Fluorescence emission spectra were subsequently collected over time. The Tb(III) emission for each sample was normalized to the integrated intensity of the 545 nm emission peak from the initial spectrum. A control was carried out using the same methodology, this time monitoring the change in Tb emission upon the addition of HEPES buffer instead of phosphate. Protease experiments: A trypsin (bovine pancreas) stock solution was prepared (1.5 mg/mL) by dissolving in 100 mM HEPES at pH 7.5. The peptide stock solution was prepared by dissolving the lyophilized peptide in the same buffer solution, and the concentration determined as reported previously. In the case when the peptide was metalated, samples were left to equilibrate with the metal upon addition for around 60 min. prior to the addition of the trypsin. Samples were left to incubate in a water bath at 37°C. At specific time points, 35 µl of each sample were taken and quenched with 35 µl of 4% TFA solution. […] Individual peaks from the HPLC were collected and then analyzed by ESI mass spectrometry in positive mode. Samples were ionised using nanoelectrospray ionisation (TriVersa NanoMate, Advion Interchim Scientific, […] 8 page 27: Figure S14: […] Figure S14: […] pancreas) and 100 mM HEPES buffered at pH 7.5. […] monitored. 27 (1 picture or pasted object on this page, not shown here) page 28: Figure S15: […] Figure S15: […] pancreas) and 100 mM HEPES buffered at pH 7.5. […] monitored. 28 (1 picture or pasted object on this page, not shown here)

[7] = tested on: T2, trypsin (bovine pancreas); assay: in vitro; format: in vitro ADME; settings: isolated enzyme trypsin, 100 µM, 12 μM trypsin, 100 mM HEPES pH 7.5, 37 °C, HPLC, trimers lacking C-terminal G-NH2 or Ac-G IAAIEQK counted
T2 construct: from tissue; host or cells: bovine pancreas
Experimental: as §1

CNC[C@H](O)[C@@H](O)[C@H](O)[C@H](O)CO.O=C([O-])CN1CCN(CC(=O)[O-])CCN(CC(=O)O)CCN(CC(=O)[O-])CC1.[Gd+3] [Dotarem]
ratio index (time for relaxation value to drop to 80% of initial value) [1]: exceeds 5000 min

O=C([O-])CN1CCN(CC(=O)[O-])CCN(CC(=O)[O-])CCN(CC(=O)[O-])CC1.[Gd+3] [Gd-DOTA]
r 1 relaxivity at 1.5 T [2]: 4.3 mM^–1 s^–1
r 2 relaxivity at 1.5 T [2]: 5.7 mM^–1 s^–1

Ac-G IAAIEQK IAANEWK DAAIEQK IAAIEQK IAAIEQK G-NH2 [MB1-2]
cleaved bond (trypsin): Lys-I, within 30 min; also recorded: Lys15-D, within 30 min; also recorded: Lys-G, within 30 min

Ac-G IAAIEQK IAANEWK DAAIXQK IAAIEQK IAAIEQK G-NH2 [KH2-20X]
cleaved bond (trypsin): Lys-G, major, 30 min; also recorded: Lys-I, 30 min
fragment found (trypsin): trimeric cross-linked IAANEWK DAAIEQK (peak 5), 30 min
not cleaved (trypsin): uncleaved IAANEWK DAAIEQK stretch; individual IAANEWK and DAAIEQK fragments absent

CNC[C@H](O)[C@@H](O)[C@H](O)[C@H](O)CO.CNC[C@H](O)[C@@H](O)[C@H](O)[C@H](O)CO.O=C([O-])CN(CCN(CC(=O)[O-])CC(=O)O)CCN(CC(=O)[O-])CC(=O)O.[Gd+3] [Magnevist]
ratio index (time for relaxation value to drop to 80% of initial value) [1]: ~250 min

Ac-G IAAIEQK IAANEWK DAAIEQK IAAIEQK IAAIEQK G-NH2 [Tb(MB1-2)3]
cleaved bond (trypsin): Lys-G, major

I: Ac-GIAAIEQKIAANEWKDAAIEQKIAAIEQKIAAIEQKG-NH2 / II: Ac-GIAAIEQKIAANEWKDAAIEQKIAAIEQKIAAIEQKG-NH2 / III: Ac-GIAAIEQKIAANEWKDAAIEQKIAAIEQKIAAIEQKG-NH2 (amide I:15-II:20, I:20-III:15, II:15-III:20) [KH2-20X]
% apo folding (10.0 μM trimer) [3]: 96 ± 3%
folding over the temperature range 20-85 °C (CD thermal unfolding): remain well-folded throughout the entire temperature range
rate of Tb(III) binding (sensitized emission 545 nm) [4]: rapid across all tested concentrations
% metalation by native mass spectrometry [5]: 95–100%
abundance of trimeric cross-linked IAANEWK DAAIEQK fragment at 30 min, apo [6]: 5%
abundance of trimeric cross-linked IAANEWK DAAIEQK fragment at 6 h, apo [6]: 20%
remaining at 0.5 h ([7]; read-out: % remaining intact as trimers after 30 min trypsin, apo): ~74%
remaining at 6 h ([7]; read-out: % remaining intact as trimers after 6 h trypsin, apo): ~45%

Ac-G IAAIEQK IAANEWK DAAIXQK IAAIEQK IAAIEQK G-NH2 [Tb(KH2-20X)]
cleaved bond (trypsin): Lys-G, major; also recorded: Lys-I
